Experimental findings from ChEMBL document CHEMBL4266063, “Synthesis of Artemisinin-Estrogen Hybrids Highly Active against HCMV, P. falciparum, and Cervical and Breast Cancer” (ACS Med Chem Lett, 2018) are described below.

The subject of one series is Human betaherpesvirus 5. Nature of the series: Antiviral activity against GFP-fused Human cytomegalovirus AD169 infected in HFF measured 7 days post infection. Type of series: functional, organism-based. To be noted: Human betaherpesvirus 5, AD169, HFF, 168 h.
The subject of a further series is C-33-A. Nature of the series: Antiproliferative activity against human C33A cells after 72 hrs by MTT assay. Format: functional, cell-based. On the technique in general: Tetrazolium dyes change colour on reduction, which living cells bring about.
The test system of the next series is HeLa. Nature of the series: Antiproliferative activity against human HeLa cells after 72 hrs by MTT assay. Format: functional, cell-based.
The next series concerns MDA-MB-361. Nature of the series: Antiproliferative activity against human MDA-MB-361 cells after 72 hrs by MTT assay. Type of series: functional, cell-based. To be noted: MDA-MB-361, 72 h.
The test system of another series is MDA-MB-231. As to the kind of experiment: Antiproliferative activity against human MDA-MB-231 cells after 72 hrs by MTT assay. Type of series: functional, cell-based. To be noted: MDA-MB-231, 72 h.
The next series has as its system T47D. As to the kind of experiment: Antiproliferative activity against human T47D cells after 72 hrs by MTT assay. Format: functional, cell-based.
The next series concerns MCF7. As to the kind of experiment: Antiproliferative activity against human MCF7 cells after 72 hrs by MTT assay. Format: functional, cell-based. The conditions noted are these: MCF7, 72 h.
A further series relates to SiHa. Nature of the series: Antiproliferative activity against human SiHa cells after 72 hrs by MTT assay. Format: functional, cell-based.
A further series relates to HFF. Nature of the series: Cytotoxicity against HFF measured over 7 days by microscopic analysis. Type of series: cell-based. To be noted: human, 168 h.
For series [1], the system named is Plasmodium falciparum. Nature of the series: Antimalarial activity against synchronized ring stage of Plasmodium falciparum 3D7 infected in human erythrocytes after 72 hrs by SYBR Green1 dye based fluorescence assay. Type of series: functional, organism-based. To be noted: 3D7, 72 h.
In series [2] the test system is Plasmodium falciparum. Nature of the series: Potency index, ratio of chloroquine EC50 to test compound EC50 for synchronized ring stage of Plasmodium falciparum 3D7 infected in human erythrocytes. Type of series: functional.

Turning to `C[C@H]1[C@@H](O)O[C@@H]2O[C@@]3(C)CC[C@H]4[C@H](C)CC[C@@H]1[C@@]24OO3` [ARTENIMOL], the EC50 – broadly, the midpoint of the concentration-response curve – with Human betaherpesvirus 5 was greater than 10 µM; in the series on C-33-A, 1.71 µM; in the series on HeLa, 10.5 µM; in the series on MDA-MB-361, 1.71 µM; in the series with MDA-MB-231 it was 10.7 µM; with T47D, 4.6 µM. The results for the EC50 in the series with MCF7 and in the series with SiHa were 8.24 µM and 29.8 µM, respectively.
`C[C@H]1[C@@H](CC(=O)OC[C@H]2C[C@H]3[C@@H]4CCc5cc(OCc6ccccc6)ccc5[C@H]4CC[C@]3(C)[C@H]2O)O[C@@H]2O[C@@]3(C)CC[C@H]4[C@H](C)CC[C@@H]1[C@@]24OO3`: the EC50 in the series on Human betaherpesvirus 5 was 0.22 µM; in the series with C-33-A it was 0.15 µM; in the series on HeLa it was 14.2 µM; in the series with MDA-MB-361 it was 0.18 µM; with MDA-MB-231, 0.86 µM; in the series with T47D, 0.93 µM. The EC50 with MCF7 was found to be 0.45 µM; in the series with SiHa it was 16.1 µM; in the series with Plasmodium falciparum [1], 0.129 µM. Moreover, in the series on HFF, the Activity entry is recorded as “Non-Toxic”.
Consider `COc1ccc2c(c1)CC[C@@H]1[C@@H]2CC[C@]2(C)[C@@H](O)[C@H](N)C[C@@H]12`, for which the EC50 with C-33-A was found to be 13.2 µM; in the series on HeLa, 13.3 µM; with MDA-MB-361, 4.58 µM; with MDA-MB-231, 16 µM; in the series on T47D it was 5.56 µM; in the series on MCF7, 11.9 µM. Further, the EC50 with SiHa turned out to be 17.4 µM.
For the compound `COc1ccc2c(c1)CC[C@@H]1[C@@H]2CC[C@]2(C)C(=O)[C@H](n3cc(CO[C@H]4O[C@@H]5O[C@@]6(C)CC[C@H]7[C@H](C)CC[C@@H]([C@H]4C)[C@@]57OO6)nn3)C[C@@H]12`, the EC50 in the series with Human betaherpesvirus 5 is 0.24 µM; with C-33-A, 2.05 µM; in the series on HeLa, 15.4 µM; in the series on MDA-MB-361 it was 0.17 µM; in the series with MDA-MB-231, 1.78 µM; with T47D, 0.16 µM. Further, the EC50 turned out to be 1.77 µM with MCF7, 28.9 µM with SiHa and 0.0131 µM in the series with Plasmodium falciparum [1]. In addition, the Activity result with HFF is recorded as “Non-Toxic”.
Consider `COc1ccc2c(c1)CC[C@@H]1[C@@H]2CC[C@]2(C)[C@@H](O)[C@H](NC(=O)O[C@H]3O[C@@H]4O[C@@]5(C)CC[C@H]6[C@H](C)CC[C@@H]([C@H]3C)[C@@]46OO5)C[C@@H]12`, for which the EC50 in the series on Human betaherpesvirus 5 amounted to 0.23 µM; with C-33-A, 0.57 µM; with HeLa it was 1.65 µM; with MDA-MB-361, 0.69 µM; in the series with MDA-MB-231, 1.85 µM; in the series with T47D, 1.17 µM. In addition, the results for the EC50 in the series on MCF7, in the series on SiHa and in the series with Plasmodium falciparum [1] were 1.02 µM, 6.21 µM and 0.0077 µM, respectively. Besides, the Activity result with HFF is reported as “Non-Toxic”.
Take `COc1ccc2c(c1)CC[C@@H]1[C@@H]2CC[C@]2(C)C(=O)[C@H](N=[N+]=[N-])C[C@@H]12`: the EC50 in the series on C-33-A, in the series with HeLa, in the series with MDA-MB-361, with MDA-MB-231, in the series with T47D and in the series with MCF7 was greater than 30 µM throughout. The EC50 in the series on SiHa is greater than 30 µM; with Plasmodium falciparum [1] it was greater than 50 µM.
For `C[C@H]1[C@H](OC(=O)CCC(=O)OC[C@H]2C[C@H]3[C@@H]4CCc5cc(OCc6ccccc6)ccc5[C@H]4CC[C@]3(C)[C@H]2O)O[C@@H]2O[C@@]3(C)CC[C@H]4[C@H](C)CC[C@@H]1[C@@]24OO3`, the EC50 in the series with Human betaherpesvirus 5 is 0.38 µM; in the series with C-33-A, 1.73 µM; in the series with HeLa, greater than 30 µM; with MDA-MB-361, 0.2 µM; in the series with MDA-MB-231, 2.3 µM; in the series with T47D it was 0.22 µM. Further, the EC50 is 0.76 µM in the series on MCF7, 28.4 µM in the series on SiHa and 0.0342 µM in the series with Plasmodium falciparum [1]. Moreover, in the series with HFF, the Activity entry was “Non-Toxic”.
For `C[C@]12CC[C@@H]3c4ccc(OCc5ccccc5)cc4CC[C@H]3[C@@H]1C[C@H](CO)[C@@H]2O`, the EC50 with C-33-A is 12.2 µM; with HeLa it was 12.8 µM; with MDA-MB-361 it was 2.77 µM; in the series with MDA-MB-231 it was 12.8 µM; with T47D it was 8.32 µM; in the series with MCF7, 12.9 µM. Further, the EC50 in the series on SiHa was 7.75 µM; in the series with Plasmodium falciparum [1] it was 17.2 µM.
In the case of `COc1ccc2c(c1)CC[C@@H]1[C@@H]2CC[C@]2(C)[C@@H](O)[C@H](NC(=O)CCC(=O)O[C@@H]3O[C@@H]4O[C@@]5(C)CC[C@H]6[C@H](C)CC[C@@H]([C@H]3C)[C@@]46OO5)C[C@@H]12`, the EC50 is 2.44 µM in the series with Human betaherpesvirus 5; 0.87 µM in the series with C-33-A; 11.5 µM in the series on HeLa; 0.64 µM with MDA-MB-361; 6.89 µM with MDA-MB-231; 0.74 µM in the series on T47D. For the same compound, the results for the EC50 in the series on MCF7, in the series with SiHa and with Plasmodium falciparum [1] were 4.69 µM, 26 µM and 0.0038 µM, respectively. Also, in the series on HFF, the Activity result is reported as “Non-Toxic”. For the same compound, the “Ratio EC50” value with Plasmodium falciparum [2] turned out to be 2.
On to `C[C@H]1[C@H](OC(=O)CCC(=O)O)O[C@@H]2O[C@@]3(C)CC[C@H]4[C@H](C)CC[C@@H]1[C@@]24OO3` [ARTESUNATE], for which the EC50 was 1.83 µM in the series on C-33-A; 12 µM in the series on HeLa; 2.27 µM with MDA-MB-361; 10 µM in the series with MDA-MB-231; 2.22 µM with T47D; 4.21 µM with MCF7. For the same compound, the results for the EC50 in the series on SiHa and in the series with Plasmodium falciparum [1] were greater than 30 µM and 0.0089 µM, respectively.
In the case of `C[C@@H]1CC[C@H]2[C@@H](C)C(=O)O[C@@H]3O[C@@]4(C)CC[C@@H]1[C@]32OO4` [ARTEMISININ], the EC50 in the series with Human betaherpesvirus 5 was greater than 10 µM.
